“Also recorded” adds a separate entry of the source. Square brackets hold non-standard residues; d marks the D form. Peptide text beside a SMILES is read from it. Sar = CNCC(=O)O
Legend:
peptide transporter [1] = test: Uptake of [^3H]Gly-Sar by MDCKII-MDR1 cells in the presence of drug/derivative; assay type: cell-based, dog; conditions: for Effect on [^3H]Gly-Sar uptake: 100 μM SQV or prodrug; for Reduction of [^3H]Gly-Sar uptake: 100 μM prodrug; for Concentration dependence of inhibition of [^3H]Gly-Sar uptake: SQV prodrugs, different concentrations up to 100 μM
P-gp [2] = conditions: rabbit, in vivo
Method: Adult male New Zealand albino rabbits weighing between 2-2.5 kg were obtained from Myrtle's rabbitry, Thompson Station, Tenn. Throughout an experiment, the animals were kept under anesthesia with ketamine HCl (35 mg/kg) and xylazine (3.5 mg/kg) given intramuscularly every hour. Pupils were dilated with two drops of 1% tropicamide prior to implantation of microdialysis probes. Linear probes were implanted in the anterior chamber using 25-gauge needles. They were inserted across the cornea just above the corneal scleral limbus so that they traversed through the center of the anterior chamber to the opposite end of the cornea, as evidenced by microscopic examination. The sample-collecting end of the linear probe was inserted carefully into the beveled edge end of the needle. The needle was retracted slowly, leaving the probe in the dialyzing membrane in the middle of the anterior chamber. The outlets of the probes were fixed to prevent any disturbances during sample collection. The probes were perfused with isotonic IPBS (pH 7.4) at a flow rate of 2 μl/min using a CMA/100 microinjection pump. After probe implantation, the animals were allowed to stabilize for 2 hours prior to the initiation of any study. […] Samples obtained in the study were analyzed by a scintillation counter (LS 6500, Beckman Instruments, Inc., Fullerton, Calif.).

P-gp [3] = target: P-gp (Oryctolagus cuniculus, UniProt Q6UUW3); conditions: rPCEC cells, equimolar concentrations
Method: Adult male New Zealand albino rabbits weighing between 2-2.5 kg were obtained from Myrtle's rabbitry, Thompson Station, Tenn. Rabbit corneas were excised and washed thoroughly with DPBS, blotted dry, and transferred to sterile culture dishes containing 0.5 ml trypsin (0.25%) or 1.2 U/ml protease (Dispase II, Roche Molecular Biochemical). The corneas were placed upside down (with the concave surface touching the protease solution) and incubated at 37° C. for 30 minutes. The epithelial cells were stripped off with gentle scraping from peripheral areas (1-1.5 mm from the limbus) to the center. Care was taken to peel only the epithelial layer and not the underlying stromal layer, because that would contaminate the epithelial cells with keratinocytes. Cells were washed with MEM (Life Technologies, Grand Island, N.Y.) and placed in culture dishes. After 12 hours (when most of the cells had attached to the bottom), the MEM was removed and fresh MEM supplemented with insulin (5 μg/ml), transferrin (5 μg/ml), sodium selinite (5 μg/ml), amphotericin B (0.25 μg/ml), polymyxin B sulfate (0.5 μg/ml), penicillin (100 U/ml), streptomycin (100 μg/ml), human recombinant epidermal growth factor (10 ng/ml), and bovine pituitary extract (50 μg/ml) were added. The medium was changed twice a week, and the cells were subcultured every 7 to 10 days (subculture ratio, 1:5). […]

P-gp (human MDR1) = test: in vitro; conditions: dog, MDCK-MDR1, pH 7.4
Method: (§1) Confluency was assessed by light microscopy.
(§2) Transport studies were conducted with MDCKII-MDR1 cell monolayers grown on 12-well Transwell® inserts (12 mm diameter). The medium was aspirated, and cell monolayers were washed three times (10 minutes per wash) with DPBS (pH 7.4). Volumes of the apical and basolateral chambers were 0.5 and 1.5 ml, respectively. Transport experiments were conducted for a period of 3 hours. Aliquots (200 μl) were withdrawn at predetermined time intervals, i.e., 15, 30, 45, 60, 90, 120, 150, and 180 minutes and replaced with fresh DPBS (pH 7.4) to maintain sink conditions. Samples were stored at −80° C. until further analysis. Experiments designed to investigate the effect of inhibitors involved preincubation of the cells with the inhibitor for a period of 30 minutes (inhibitor solution was added to both donor and receiver chambers) prior to the addition of the drug solution (also containing the inhibitor) to initiate the transport study. All transport experiments were performed at 37° C.
(§3) The HPLC system comprised an HP 1050 pump, an Agilent 1100 series fluorescence detector, and an Alcott autosampler (model 718 HPLC). A C(8) Luna column (250 mm×4.6 mm); Phenomenex, Torrance, Calif.) was employed in the analysis. The mobile phase consisted of 20 mM phosphate buffer (pH adjusted to 2.5) and 12% acetonitrile as the organic modifier. The parent drug and the derivative were detected with a fluorescence detector (λex=240 nm, λem=450 nm).
(§4) Linear regression analysis of the amounts transported as a function of time yielded the rate of transport across the cell monolayer (dM/dt). The rate divided by the cross-sectional are available for transport (A) generated the steady-state flux as shown in Equation 1. flux=(dM/dt)/A (Equation 1) Permeability was calculated by normalizing the steady-state flux to the donor concentration (Cd) of the drug according to Equation 2. Permeability=flux/Cd (Equation 2)
(§5) Transport studies with MDCKII-MDR1 cell monolayers were carried out as described in Example 7. […] Detection issues of the prodrug and/or parent drug in the acceptor chamber was considered for the selection of prodrug concentration. Aliquots (200 μL) were withdrawn at predetermined time intervals, i.e., 15, 30, 45, 60, 90, 120, 150, 180 min, respectively, and replaced with fresh DPBS, pH 7.4, to maintain sink conditions. Dilutions were taken into account for the calculations. Samples were stored at −80° C. until further analysis. All transport experiments were performed at 37° C.
(§6) The HPLC system was comprised of HP 1050 pump, Waters dual wavelength absorbance UV detector, and an Alcott auto sampler (model 718AL HPLC). A C(8) Luna column (250 mm×4.6 mm; Phenomenex, Torrance, Calif.) was employed for the separation of analytes. Mobile phase composed of acetonitrile:water:triethylamine (55:44:1%, v/v/v) and the pH was adjusted to 6.5 with o-phosphoric acid. Flow rate was maintained at 0.8 mL/min and detection wavelength was set at 240 nm.
(§7) Intact prodrug transported and breakdown products, formed during the transport study, were analyzed. Cumulative amount of drug transported (the sum of prodrug and regenerated parent drug) was plotted as a function of time. Apparent permeabilities (Papp) were determined from the linear portion of the cumulative amount versus time plot.

[4] = tested on: MDCKII-MDR1 cell monolayers; test: in vitro
Method: as §1, §2, §3, §4, §5, §6, §7

peptide transporter [5] = test: Uptake of [^3H]Gly-Sar by MDCKII-MDR1 cells in the presence of drug/derivative; assay type: cell-based, dog; conditions: for Inhibition of [^3H]Gly-Sar uptake: MDCKII-MDR1 cells, quinidine and derivatives; for Uptake of [^3H]Gly-Sar: control 0.033
Method: Studies were performed to investigate whether derivatives of quinidine are substrates for a nutrient peptide transport system.
Unlabeled Gly-Sar at concentrations of 1 and 2 mM reduced the uptake of [^3H]Gly-Sar from 0.033 to 0.026 pmol/(min mg) (20%) and 0.019 pmol/(min mg) (41%), respectively (FIG. 9).

[6] = buffer
Method: Stability in DPBS was determined by incubating 200 μL prodrug solution with 800 μL DPBS with pH adjusted to 5 and 7.4. Slope of the line of “log percentage prodrug remaining versus time” plot was employed to calculate the degradation rate constants.

P-gp [7] = target: P-gp (Homo sapiens, UniProt P08183); conditions: MDCKII-MDR1 cells
Source text: Two different concentrations were employed to examine the effect of prodrug concentration on P-gp inhibition.

[8] = tested on: MDCKII-MDR1 cell homogenates; conditions: dog
Method: Confluent MDCKII-MDR1 cells were washed three times with Dulbecco's phosphate buffered saline (DPBS) (130 mM NaCl, 7.5 mM Na2HPO4, 1.5 mM KH2PO4, 0.5 mM MgSO4, 1 mM CaCl2, […] and 5 mM glucose). Cells were then isolated with the aid of a mechanical scrapper and suspended in two volumes of water and homogenized (Multipro variable speed homogenizer, DREMEL; Racine, Wis.). Suitable dilutions were made to achieve a final protein concentration of 0.25 mg/mL. Protein content was determined according to the method of Bradford (Bradford, Anal. Biochem., 72, 248 (1976)) with BioRad protein estimation kit.
An aliquot (800 μL) of the cell homogenate was incubated with 200 μL (30 μg/mL) prodrug solution at 37° C. in a shaking water bath (60 rpm). One hundred microlitres samples were withdrawn at predetermined time points and an equal volume of ice-cold acetonitrile:methanol (5:4) mixture was added to stop the enzymatic reaction. Samples were stored at −80° C. until further analysis.

in vitro = conditions: dog, MDCK-MDR1
Method: as §1, §2, §3, §4, §5, §6, §7

P-gp (Homo sapiens, UniProt P08183), sequence (P08183 whole entry): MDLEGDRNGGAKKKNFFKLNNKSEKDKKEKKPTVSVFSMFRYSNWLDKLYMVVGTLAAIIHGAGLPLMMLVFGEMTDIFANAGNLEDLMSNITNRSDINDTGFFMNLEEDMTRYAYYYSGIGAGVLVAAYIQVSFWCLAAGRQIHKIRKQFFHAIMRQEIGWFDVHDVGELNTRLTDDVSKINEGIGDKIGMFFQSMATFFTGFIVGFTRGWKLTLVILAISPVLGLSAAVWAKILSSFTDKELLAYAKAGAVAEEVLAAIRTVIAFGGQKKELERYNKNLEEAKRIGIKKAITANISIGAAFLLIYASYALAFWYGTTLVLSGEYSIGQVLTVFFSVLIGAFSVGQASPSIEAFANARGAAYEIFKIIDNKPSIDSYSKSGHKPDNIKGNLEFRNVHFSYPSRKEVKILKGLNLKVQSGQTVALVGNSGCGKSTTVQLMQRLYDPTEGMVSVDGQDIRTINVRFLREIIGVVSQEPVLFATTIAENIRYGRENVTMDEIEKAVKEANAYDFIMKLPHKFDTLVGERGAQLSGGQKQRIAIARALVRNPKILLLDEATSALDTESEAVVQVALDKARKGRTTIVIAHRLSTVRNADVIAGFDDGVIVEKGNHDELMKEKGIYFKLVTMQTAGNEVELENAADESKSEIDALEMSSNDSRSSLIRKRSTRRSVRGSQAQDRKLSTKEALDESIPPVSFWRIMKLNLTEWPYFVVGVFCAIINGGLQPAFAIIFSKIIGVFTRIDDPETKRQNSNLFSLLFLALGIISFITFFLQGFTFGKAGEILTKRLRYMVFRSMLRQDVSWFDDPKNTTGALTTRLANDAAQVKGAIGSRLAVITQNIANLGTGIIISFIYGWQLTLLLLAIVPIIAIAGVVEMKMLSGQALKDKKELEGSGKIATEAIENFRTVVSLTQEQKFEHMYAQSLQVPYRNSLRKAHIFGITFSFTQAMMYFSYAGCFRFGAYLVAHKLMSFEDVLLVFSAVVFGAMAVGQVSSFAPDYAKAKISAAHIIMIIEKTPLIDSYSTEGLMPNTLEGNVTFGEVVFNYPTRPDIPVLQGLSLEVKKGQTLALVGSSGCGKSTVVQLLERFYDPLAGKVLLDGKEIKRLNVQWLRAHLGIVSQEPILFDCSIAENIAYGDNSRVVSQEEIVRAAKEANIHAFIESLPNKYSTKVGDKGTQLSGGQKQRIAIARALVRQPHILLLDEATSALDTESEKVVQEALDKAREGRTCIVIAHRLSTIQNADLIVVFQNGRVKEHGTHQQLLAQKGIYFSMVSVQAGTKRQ
P-gp (Oryctolagus cuniculus, UniProt Q6UUW3), sequence (Q6UUW3 1-1279): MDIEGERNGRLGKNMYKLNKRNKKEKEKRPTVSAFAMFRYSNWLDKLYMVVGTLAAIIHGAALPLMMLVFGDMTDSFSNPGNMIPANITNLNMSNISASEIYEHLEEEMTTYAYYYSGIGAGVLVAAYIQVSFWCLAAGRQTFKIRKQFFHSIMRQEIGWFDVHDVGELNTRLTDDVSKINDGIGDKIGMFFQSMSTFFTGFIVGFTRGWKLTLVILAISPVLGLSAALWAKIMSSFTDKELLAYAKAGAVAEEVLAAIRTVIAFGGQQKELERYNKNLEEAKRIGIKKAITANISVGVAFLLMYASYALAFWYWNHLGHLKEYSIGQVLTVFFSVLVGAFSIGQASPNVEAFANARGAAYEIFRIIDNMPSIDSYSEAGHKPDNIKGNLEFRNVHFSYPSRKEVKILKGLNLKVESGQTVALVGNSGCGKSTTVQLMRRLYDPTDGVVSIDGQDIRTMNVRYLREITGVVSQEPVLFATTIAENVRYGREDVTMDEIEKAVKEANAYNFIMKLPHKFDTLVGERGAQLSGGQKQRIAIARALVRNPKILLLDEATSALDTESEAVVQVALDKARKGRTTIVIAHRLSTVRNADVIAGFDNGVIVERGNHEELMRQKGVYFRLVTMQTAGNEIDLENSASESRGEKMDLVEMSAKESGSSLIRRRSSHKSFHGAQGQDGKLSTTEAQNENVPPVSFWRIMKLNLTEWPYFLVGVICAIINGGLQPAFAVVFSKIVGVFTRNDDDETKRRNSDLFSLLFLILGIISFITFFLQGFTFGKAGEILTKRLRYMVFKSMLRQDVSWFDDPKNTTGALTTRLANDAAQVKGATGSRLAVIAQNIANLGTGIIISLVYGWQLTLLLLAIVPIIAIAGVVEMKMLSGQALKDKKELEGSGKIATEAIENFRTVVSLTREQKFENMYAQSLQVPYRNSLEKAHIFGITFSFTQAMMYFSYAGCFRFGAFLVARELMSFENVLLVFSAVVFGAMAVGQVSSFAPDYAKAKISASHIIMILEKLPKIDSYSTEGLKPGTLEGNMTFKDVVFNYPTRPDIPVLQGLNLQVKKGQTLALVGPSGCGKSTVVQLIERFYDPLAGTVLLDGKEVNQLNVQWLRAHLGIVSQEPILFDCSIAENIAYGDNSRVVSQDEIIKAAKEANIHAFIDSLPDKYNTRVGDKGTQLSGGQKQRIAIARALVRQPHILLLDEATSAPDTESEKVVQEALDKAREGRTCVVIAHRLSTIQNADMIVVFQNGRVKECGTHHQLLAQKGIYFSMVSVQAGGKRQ

Q: For CC(C)(C)NC(=O)[C@@H]1C[C@@H]2CCCC[C@@H]2CN1C[C@@H](O)[C@H](Cc1ccccc1)NC(=O)[C@H](CC(N)=O)NC(=O)c1ccc2ccccc2n1 [SQV, saquinavir, reference compound], which “Effect on [^3H]Gly-Sar uptake” value (peptide transporter [1]) is on record?
A: did not demonstrate any significant inhibition

Q: With C=C[C@H]1C[N@@]2CC[C@H]1C[C@@H]2[C@@H](O)c1ccnc2ccc(OC)cc12 [quinidine, reference compound] as the molecule, how does the “Inhibition of the P-gp mediated efflux pump” value (P-gp [2]) read?
A: caused inhibition

Q: And the “Inhibitory effect on P-gp mediated efflux ([^3H]erythromycin uptake)” value (P-gp [3])?
A: high inhibitory effect

Q: What about the Papp A→B at 3 h, 10 μM (P-gp (human MDR1)) of the same molecule?
A: 6.5 ×10⁻⁶ cm/s

Q: And the Papp B→A at 3 h, 10 μM (P-gp (human MDR1))?
A: 18.3 ×10⁻⁶ cm/s

Q: And the “Difference between AP-BL and BL-AP permeability” value ([4]; MDCK-MDR1)?
A: three fold difference

Q: What about the “Inhibition of [^3H]Gly-Sar uptake” value (peptide transporter [5]) of the same molecule?
A: did not demonstrate any inhibition

Q: With C=C[C@H]1CN2CC[C@H]1C[C@@H]2[C@@H](OC(=O)[C@@H](NC(=O)[C@@H](N)C(C)C)C(C)C)c1ccnc2ccc(OC)cc12 [Val-Val-Q, Val-Val-Quinidine] as the molecule, how does the “Inhibition of [^3H]Gly-Sar uptake” value (peptide transporter [5]) read?
A: concentration dependent inhibition

Q: What does the source list for CC(C)[C@H](N)C(=O)N[C@H](C(=O)O[C@H](CN1C[C@H]2CCCC[C@H]2C[C@H]1C(=O)NC(C)(C)C)[C@H](Cc1ccccc1)NC(=O)[C@H](CC(N)=O)NC(=O)c1ccc2ccccc2n1)C(C)C [Val-Val-SQV, Val-Val-saquinavir]?
A: Half-life (t1/2) in DPBS, pH 5 [6]: 94.8±21.4 h; Half-life (t1/2) in DPBS, pH 7.4 [6]: 18.3±1.4 h; Efflux ratio (BL Papp/AP Papp) ([4]; MDCK-MDR1): 6; Concentration at which the prodrug saturates P-gp (P-gp [7]): 50 µM; Effect on [^3H]Gly-Sar uptake (peptide transporter [1]): significantly decreased; Reduction of [^3H]Gly-Sar uptake (peptide transporter [1]): 35%; Concentration dependence of inhibition of [^3H]Gly-Sar uptake (peptide transporter [1]): concentration dependent inhibition; Half-life (t1/2) in MDCK-MDR1 cell homogenates [8]: 6.6 ± 0.56 h

Q: Which results are given for C=CC1CN2CCC1CC2C(OC(=O)C(N)C(C)C)c1ccnc2ccc(OC)cc12 (centres unmarked) [Val-Q, Val-Quinidine]?
A: Difference between AP-BL and BL-AP permeability ([4]; MDCK-MDR1): equivalent; Apparent permeability Papp AP-BL ([4]; MDCK-MDR1, pH 7.4): 5.13±0.49×10^−6 cm.s^−1; Apparent permeability Papp BL-AP ([4]; MDCK-MDR1, pH 7.4): 6.17±1.28×10^−6 cm.s^−1; Inhibition of [^3H]Gly-Sar uptake (peptide transporter [5]): concentration dependent inhibition

Q: With CN(CC(=O)O)C(=O)CN [Gly-Sar, Glycyl-Sarcosine] (H-Gly-[Sar]-OH) as the molecule, how does the “Reduction of [^3H]Gly-Sar uptake” value (peptide transporter [5]; 1 mM unlabeled Gly-Sar) read?
A: 20%

Q: What about the “Uptake of [^3H]Gly-Sar” value (peptide transporter [5]; 1 mM unlabeled Gly-Sar) of the same molecule?
A: 0.026 pmol/min/mg

Q: And the “Reduction of [^3H]Gly-Sar uptake” value (peptide transporter [5]; 2 mM unlabeled Gly-Sar)?
A: 41%

Q: And the “Uptake of [^3H]Gly-Sar” value (peptide transporter [5]; 2 mM unlabeled Gly-Sar)?
A: 0.019 pmol/min/mg

Q: What about the “Concentration dependence of [^3H]Gly-Sar cellular accumulation” value (peptide transporter [5]; unlabeled Gly-Sar 1 mM and 2 mM) of the same molecule?
A: concentration dependent decrease; also recorded: concentration dependent reduction

Q: What does the source list for OC[C@@H](O)[C@@H](O)[C@H](O)[C@H](O)CO [[^14C]mannitol, mannitol, reference compound]?
A: Papp (in vitro): < 0.2 ×10⁻⁶ cm/s; [^14C]mannitol transport across the cell monolayer ([4]; dog, MDCK-MDR1): < 0.5 %/h

Q: With CC(C)[C@H](NC(=O)CN)C(=O)O[C@H](CN1C[C@H]2CCCC[C@H]2C[C@H]1C(=O)NC(C)(C)C)[C@H](Cc1ccccc1)NC(=O)[C@H](CC(N)=O)NC(=O)c1ccc2ccccc2n1 [Gly-Val-SQV, Gly-Val-saquinavir] as the molecule, how does the “Half-life (t1/2) in DPBS, pH 5” value [6] read?
A: 34.5±0.85 h

Q: And the “Half-life (t1/2) in DPBS, pH 7.4” value [6]?
A: 13.1±0.33 h

Q: What about the “Efflux ratio (BL Papp/AP Papp)” value ([4]; MDCK-MDR1) of the same molecule?
A: 6

Q: And the “Concentration at which the prodrug saturates P-gp” value (P-gp [7])?
A: 75 µM

Q: What about the “Effect on [^3H]Gly-Sar uptake” value (peptide transporter [1]) of the same molecule?
A: significantly decreased

Q: What about the “Reduction of [^3H]Gly-Sar uptake” value (peptide transporter [1]) of the same molecule?
A: 42%

Q: And the “Concentration dependence of inhibition of [^3H]Gly-Sar uptake” value (peptide transporter [1])?
A: concentration dependent inhibition

Q: And the “Half-life (t1/2) in MDCK-MDR1 cell homogenates” value [8]?
A: 1.75 ± 0.11 h
